Measurements as given in PubChem BioAssay AID248 (DTP/NCI, 2004).
Where “and” joins values, the source holds several entries; their conditions need not be identical. Equal entries are not always repeated. Inconclusive results and toxic doses are left out. Cut-off read from the data, not from the text of the source: active = T/C of 150% or more; inactive = T/C below 125%.

System: L1210 leukemia ip in BDF1 mice, survival T/C
Experiment: NCI In Vivo Anticancer Drug Screen. Data for tumor model L1210 Leukemia (intraperitoneal) in B6D2F1 (BDF1) mice
Conditions: endpoint: mean survival time, higher = longer survival
How it was run: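 Read-out is survival time, reported as the treated-group measurement over the vehicle-control measurement.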

[1] = dose: 100.0 mg/kg/injection, schedule: Q01DX001 (ip), vehicle: Klucel (hydroxypropylcellulose) (HPC)
[2] = dose: 200.0 mg/kg/injection, schedule: Q01DX001 (ip), vehicle: Klucel (hydroxypropylcellulose) (HPC)
[3] = dose: 400.0 mg/kg/injection, schedule: Q01DX001 (ip), vehicle: Klucel (hydroxypropylcellulose) (HPC)
[4] = dose: 50.0 mg/kg/injection, schedule: Q01DX001 (ip), vehicle: saline
[5] = dose: 100.0 mg/kg/injection, schedule: Q01DX001 (ip), vehicle: saline
[6] = dose: 200.0 mg/kg/injection, schedule: Q01DX001 (ip), vehicle: saline
[7] = dose: 125.0 mg/kg/injection, schedule: Q01DX001 (ip), vehicle: saline
[8] = dose: 250.0 mg/kg/injection, schedule: Q01DX001 (ip), vehicle: saline
[9] = dose: 100.0 mg/kg/injection, schedule: Q01DX009 (ip), vehicle: saline with Tween-80
[10] = dose: 200.0 mg/kg/injection, schedule: Q01DX009 (ip), vehicle: saline with Tween-80
[11] = dose: 100.0 mg/kg/injection, schedule: Q01DX009 (ip), vehicle: Klucel (hydroxypropylcellulose) (HPC)
[12] = dose: 100.0 mg/kg/injection, schedule: Q04DX003 (ip), vehicle: Klucel (hydroxypropylcellulose) (HPC)
[13] = dose: 200.0 mg/kg/injection, schedule: Q04DX003 (ip), vehicle: Klucel (hydroxypropylcellulose) (HPC)
[14] = dose: 400.0 mg/kg/injection, schedule: Q04DX003 (ip), vehicle: Klucel (hydroxypropylcellulose) (HPC)
[15] = dose: 400.0 mg/kg/injection, schedule: Q01DX001 (ip), vehicle: saline

Measured: T/C

Clc1ccc(/C=N\Nc2ccccc2)c(Cl)c1
inactive: [1] 103 % of control | [2] 101 % of control | [3] 109 % of control

Cc1c2c(c(C)c3ccncc13)S(=O)(=O)c1ccccc1-2
inactive: dose: 75.0 mg/kg/injection, schedule: Q01DX001 (ip), vehicle: other 95 % of control | dose: 150.0 mg/kg/injection, schedule: Q01DX001 (ip), vehicle: other 93 % of control | dose: 300.0 mg/kg/injection, schedule: Q01DX001 (ip), vehicle: other 93 % of control

NNc1ncccc1[N+](=O)[O-]
inactive: [4] 102 % of control | [5] 108 % of control | [6] 96 % of control

Cc1cc(C(C)(C)C)ccc1SC(=O)Nc1cc([N+](=O)[O-])ccc1Cl
inactive: dose: 100.0 mg/kg/injection, schedule: Q01DX001 (ip), vehicle: gum acacia 94 % of control and 95 % of control | dose: 100.0 mg/kg/injection, schedule: Q01DX009 (ip), vehicle: gum acacia 103 % of control | dose: 100.0 mg/kg/injection, schedule: Q04DX002 (ip), vehicle: gum acacia 99 % of control and 105 % of control | dose: 100.0 mg/kg/injection, schedule: Q04DX003 (ip), vehicle: gum acacia 97 % of control and 108 % of control | dose: 200.0 mg/kg/injection, schedule: Q01DX001 (ip), vehicle: gum acacia 95 % of control and 97 % of control | dose: 200.0 mg/kg/injection, schedule: Q01DX009 (ip), vehicle: gum acacia 102 % of control | dose: 200.0 mg/kg/injection, schedule: Q04DX002 (ip), vehicle: gum acacia 103 % of control and 115 % of control | dose: 200.0 mg/kg/injection, schedule: Q04DX003 (ip), vehicle: gum acacia 96 % of control and 99 % of control | dose: 400.0 mg/kg/injection, schedule: Q01DX001 (ip), vehicle: gum acacia 94 % of control and 95 % of control | dose: 400.0 mg/kg/injection, schedule: Q04DX002 (ip), vehicle: gum acacia 101 % of control and 105 % of control | dose: 400.0 mg/kg/injection, schedule: Q04DX003 (ip), vehicle: gum acacia 101 % of control and 91 % of control

CN(C)[S+](C)(=O)/C=C(/[O-])c1ccccc1 (configuration not stated)
inactive: dose: 62.5 mg/kg/injection, schedule: Q01DX001 (ip), vehicle: saline 106 % of control | [7] 102 % of control | [8] 102 % of control

O=C1c2ccccc2C(=O)N1CCOCCOCCOCCN1C(=O)c2ccccc2C1=O
inactive: dose: 50.0 mg/kg/injection, schedule: Q01DX009 (ip), vehicle: saline with Tween-80 97 % of control | [9] 91 % of control | dose: 100.0 mg/kg/injection, schedule: Q04DX002 (ip), vehicle: Klucel (hydroxypropylcellulose) (HPC) 102 % of control | [10] 94 % of control | dose: 200.0 mg/kg/injection, schedule: Q04DX002 (ip), vehicle: Klucel (hydroxypropylcellulose) (HPC) 94 % of control | dose: 400.0 mg/kg/injection, schedule: Q04DX002 (ip), vehicle: Klucel (hydroxypropylcellulose) (HPC) 102 % of control

OC(c1ccccc1)(c1c2ccccc2cc2ccccc12)C1CCC1 (configuration not stated)
inactive: [11] 101 % of control | [12] 110 % of control | dose: 200.0 mg/kg/injection, schedule: Q01DX009 (ip), vehicle: Klucel (hydroxypropylcellulose) (HPC) 102 % of control | [13] 91 % of control | dose: 400.0 mg/kg/injection, schedule: Q01DX009 (ip), vehicle: Klucel (hydroxypropylcellulose) (HPC) 96 % of control | [14] 110 % of control

Nc1nc(=S)c2[nH]c(N=Nc3ccc(S(=O)(=O)Nc4cnc5ccccc5n4)cc3)nc2[nH]1
inactive: dose: 25.0 mg/kg/injection, schedule: Q01DX009 (ip), vehicle: Klucel (hydroxypropylcellulose) (HPC) 112 % of control | dose: 50.0 mg/kg/injection, schedule: Q01DX009 (ip), vehicle: Klucel (hydroxypropylcellulose) (HPC) 109 % of control | [11] 91 % of control

Oc1ccc(Br)c2cccnc12
inactive: [4] 100 % of control | [5] 103 % of control | [6] 103 % of control | [15] 100 % of control

ClC1(c2ccccc2)C2CCCCC21 (configuration not stated)
inactive: dose: 75.0 mg/kg/injection, schedule: Q01DX001 (ip), vehicle: saline 100 % of control | dose: 150.0 mg/kg/injection, schedule: Q01DX001 (ip), vehicle: saline 100 % of control

C[C@]12CCC(=O)C=C1CC[C@@H]1[C@@H]2C(=O)C[C@@]2(C)[C@H]1CC[C@]2(O)C(=O)COP(=O)(Nc1ccccc1)Nc1ccccc1
inactive: dose: 50.0 mg/kg/injection, schedule: Q01DX001 (sc), vehicle: steriod suspending solution 102 % of control | dose: 100.0 mg/kg/injection, schedule: Q01DX001 (sc), vehicle: steriod suspending solution 98 % of control | dose: 200.0 mg/kg/injection, schedule: Q01DX001 (sc), vehicle: steriod suspending solution 102 % of control | dose: 400.0 mg/kg/injection, schedule: Q01DX001 (sc), vehicle: steriod suspending solution 98 % of control

CCCC(=O)OCC1OC(n2cc(C)c(=O)[nH]c2=O)CC1OC(=O)CCC (configuration not stated)
inactive: dose: 100.0 mg/kg/injection, schedule: Q01DX001 (ip), vehicle: carboxymethylcellulose (CMC) 104 % of control | dose: 200.0 mg/kg/injection, schedule: Q01DX001 (ip), vehicle: carboxymethylcellulose (CMC) 93 % of control

CN(C(=O)NCCCl)c1cccc2c1CCCC2
inactive: [1] 97 % of control | [2] 105 % of control | [3] 111 % of control

O=C1/C(=C/c2ccco2)CCC2CC3(CCC12)OCCO3 (configuration not stated)
inactive: dose: 100.0 mg/kg/injection, schedule: Q01DX009 (ip), vehicle: saline 116 % of control | dose: 100.0 mg/kg/injection, schedule: Q04DX003 (ip), vehicle: saline 92 % of control | dose: 200.0 mg/kg/injection, schedule: Q01DX009 (ip), vehicle: saline 102 % of control | dose: 200.0 mg/kg/injection, schedule: Q04DX003 (ip), vehicle: saline 97 % of control | dose: 400.0 mg/kg/injection, schedule: Q01DX009 (ip), vehicle: saline 98 % of control | dose: 400.0 mg/kg/injection, schedule: Q04DX003 (ip), vehicle: saline 94 % of control

Cc1cc(=O)[nH]c2oc(-c3ccccc3)cc(=O)c12
inactive: [5] 101 % of control | [6] 103 % of control | [15] 100 % of control

Cc1ccc(CNc2ccc(F)cc2)cc1
inactive: [9] 94 % of control | dose: 100.0 mg/kg/injection, schedule: Q04DX003 (ip), vehicle: saline with Tween-80 92 % of control | [10] 100 % of control | dose: 200.0 mg/kg/injection, schedule: Q04DX003 (ip), vehicle: saline with Tween-80 102 % of control | dose: 400.0 mg/kg/injection, schedule: Q01DX009 (ip), vehicle: saline with Tween-80 97 % of control | dose: 400.0 mg/kg/injection, schedule: Q04DX003 (ip), vehicle: saline with Tween-80 113 % of control

CC(=O)OC1CCC2(C)C(CCC3C2CCC2(C)C3CC3OC(CCC(C)(C)O)C(C)C32)C1 (configuration not stated)
inactive: dose: 100.0 mg/kg/injection, schedule: Q01DX001 (ip), vehicle: saline with Tween-80 92 % of control | dose: 200.0 mg/kg/injection, schedule: Q01DX001 (ip), vehicle: saline with Tween-80 92 % of control | dose: 400.0 mg/kg/injection, schedule: Q01DX001 (ip), vehicle: saline with Tween-80 92 % of control

OC(c1ccccc1)C1(O)CC2CCC1C2 (configuration not stated)
inactive: dose: 6.25 mg/kg/injection, schedule: Q01DX001 (ip), vehicle: saline 96 % of control | [7] 100 % of control | [8] 98 % of control

COC(=O)C(CCc1cc(OC)c(OC)c(OC)c1)C(C(=O)OC)C(=O)OC (configuration not stated)
inactive: [12] 87 % of control | [13] 94 % of control | [14] 89 % of control
